Laboratory results reported in the NIST ThermoML archive (doi:10.1016/j.jct.2005.05.018).
Values joined by “and” are separate entries in the source; they are usually repeats but may differ in a detail not shown here. Equal entries are not always repeated. ± gives the expanded uncertainty stated by the source.

Settings: Liquid, Closed cell (Static) method

C[CH2][Sb]([CH2]C)[CH2]C [triethylstibine]
vapor or sublimation pressure (238.42 K): 0.0037 ± 0.00017 kPa | vapor or sublimation pressure (243.46 K): 0.00611 ± 0.00026 kPa and 0.0061 ± 0.00026 kPa | vapor or sublimation pressure (248.47 K): 0.00991 ± 0.0004 kPa and 0.00989 ± 0.0004 kPa and 0.0099 ± 0.0004 kPa | vapor or sublimation pressure (253.48 K): 0.01569 ± 0.00056 kPa | vapor or sublimation pressure (258.48 K): 0.02451 ± 0.0007 kPa and 0.02448 ± 0.0007 kPa and 0.02449 ± 0.0007 kPa | vapor or sublimation pressure (263.48 K): 0.03735 ± 0.00091 kPa and 0.03734 ± 0.00091 kPa and 0.03733 ± 0.00091 kPa | vapor or sublimation pressure (268.48 K): 0.0557 ± 0.0012 kPa and 0.05561 ± 0.0012 kPa and 0.0556 ± 0.0012 kPa | vapor or sublimation pressure (273.68 K): 0.08268 ± 0.0017 kPa [middle of 4 runs] | vapor or sublimation pressure (278.49 K): 0.1181 ± 0.0022 kPa and 0.118 ± 0.0022 kPa | vapor or sublimation pressure (283.49 K): 0.1676 ± 0.0025 kPa | vapor or sublimation pressure (285.99 K): 0.1995 ± 0.0028 kPa | vapor or sublimation pressure (288.49 K): 0.2362 ± 0.0031 kPa and 0.2363 ± 0.0031 kPa | vapor or sublimation pressure (290.99 K): 0.2791 ± 0.0035 kPa and 0.279 ± 0.0035 kPa | vapor or sublimation pressure (293.49 K): 0.3288 ± 0.004 kPa and 0.3282 ± 0.004 kPa and 0.3281 ± 0.004 kPa | vapor or sublimation pressure (295.99 K): 0.3849 ± 0.0045 kPa and 0.385 ± 0.0045 kPa | vapor or sublimation pressure (298.49 K): 0.4505 ± 0.0052 kPa and 0.4504 ± 0.0052 kPa and 0.4503 ± 0.0052 kPa | vapor or sublimation pressure (301 K): 0.5246 ± 0.0058 kPa
